{
  "source": "paper PMC3523284",
  "about": "(Cell metabolism, 2012)",
  "key": {"[1]": {"biological_target": "T1, Mss51 (Saccharomyces cerevisiae, UniProt P32335)", "T1 sequence (P32335 1-436)": "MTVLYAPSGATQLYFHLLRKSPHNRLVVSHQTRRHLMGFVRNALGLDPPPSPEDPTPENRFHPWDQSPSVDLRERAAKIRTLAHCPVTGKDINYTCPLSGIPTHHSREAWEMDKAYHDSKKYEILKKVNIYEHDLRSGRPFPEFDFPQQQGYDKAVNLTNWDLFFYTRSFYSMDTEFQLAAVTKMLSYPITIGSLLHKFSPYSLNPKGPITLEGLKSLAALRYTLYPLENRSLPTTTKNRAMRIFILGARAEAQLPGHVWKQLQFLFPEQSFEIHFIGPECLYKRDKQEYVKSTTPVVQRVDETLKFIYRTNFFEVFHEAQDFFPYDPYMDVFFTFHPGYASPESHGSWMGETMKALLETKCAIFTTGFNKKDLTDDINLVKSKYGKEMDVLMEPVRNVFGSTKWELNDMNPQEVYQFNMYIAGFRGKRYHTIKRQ", "assay": "difference UV-visible spectroscopy titration", "assay_type": "binding"}, "[2]": {"biological_target": "Mss51 (Saccharomyces cerevisiae, UniProt P32335, C85S)", "sequence (P32335 whole entry C85S)": "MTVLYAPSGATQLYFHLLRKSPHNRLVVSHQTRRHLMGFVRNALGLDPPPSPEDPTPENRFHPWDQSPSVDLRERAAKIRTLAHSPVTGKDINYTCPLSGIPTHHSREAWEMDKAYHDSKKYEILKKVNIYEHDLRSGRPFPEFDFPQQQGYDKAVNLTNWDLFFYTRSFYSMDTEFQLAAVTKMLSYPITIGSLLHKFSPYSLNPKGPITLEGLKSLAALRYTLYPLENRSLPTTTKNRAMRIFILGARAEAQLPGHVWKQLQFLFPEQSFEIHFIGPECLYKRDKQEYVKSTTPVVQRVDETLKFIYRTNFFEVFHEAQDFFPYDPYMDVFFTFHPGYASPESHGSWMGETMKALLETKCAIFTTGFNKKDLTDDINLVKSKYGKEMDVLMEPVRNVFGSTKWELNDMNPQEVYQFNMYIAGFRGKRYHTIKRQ", "assay": "difference UV-visible spectroscopy titration", "assay_type": "binding"}},
  "data": [
    {"smiles": "C=CC1=C(C)C2=Cc3c(C=C)c(C)c4[n]3[Fe]([Cl])[n]3c(c(C)c(CCC(=O)O)c3=CC3=NC(=C4)C(C)=C3CCC(=O)O)=CC1=N2", "note": "[hemin]", "values": [
      {"measurement": "Kd", "setting": "[1]", "value": "~445", "unit": "nM"},
      {"measurement": "Kd", "setting": "[2]", "value": "324 ± 74", "unit": "nM"}
    ]}
  ]
}
